Laboratory results: patent US5075322A, “Selenophen derivatives, a preparation process of the same and therapeutical compositions containing them” (Societe de Conseils de Recherches et d'Applications …, priority 1989, dated 1991)

Columns and labels:
[1] = system: histamine induced bronchospasm; assay: histamine-induced bronchospasm in artificially ventilated anaesthetized guinea pigs; assay type: in vivo; conditions: Cavia porcellus, po, 1 h, read-out: ED50 (P.O.)
[2] = system: ovalbumine-induced bronchospasm; assay: ovalbumine-induced bronchoconstriction in passively sensitized rats; assay type: in vivo; conditions: for Percentage of bronchoconstriction / Percentage of effect: Table IV
From the text: (§1) The different symbols NS, *, ** and *** which may be found in the different tables, mean that the result is respectively not significative, significative, very significative and highly significative.

rat washed platelets = assay: PAF-induced aggregation of rat washed platelets in vitro; assay type: cell-based; conditions: Platelet, PAF 5.10^-10 M
From the text: In vitro: effects on aggregation (IC50) induced by PAF (5·10^-10 M), rat washed platelets are as follow: IC50 Compound XI 2.10^-6 M. IC50 Ketotifen 10^-5 M.

PAF induced bronchospasm = assay: PAF-induced bronchospasm in artificially-ventilated anaesthetized guinea pigs; assay type: in vivo; conditions: for Percentage of bronchoconstriction / Percentage of effect: Table VII, PAF 60 mg/kg IV
From the text: as §1

[3] = anti-allergic activity (general statements)
[4] = system: B.S.A.-induced immune lethality in mice; assay: B.S.A.-induced immune lethality (anaphylactic shock) in actively sensitized mice; assay type: in vivo
From the text: as §1
At the same dose, ketotifen has no effect.

[5] = system: ovalbumine-induced bronchospasm; assay: ovalbumine-induced bronchospasm in anaesthetized passively sensitized guinea-pigs; assay type: in vivo
Protocol: In the ovalbumine-induced bronchospasm in anaesthetized passively sensitized guinea-pigs, compound XI and ketotifen, administered 1 hour before the injection of ovalbumine, inhibit the bronchoconstriction (>90%) in a dose-dependant-manner respectively with following ED50 (P.O.)
For both products, the activity disappears at 24 hours.
The kinetic results, after administration by oral route of the said compounds at 0.1 mg/kg and 0.05 mg/kg (P.O.), for 1 to several hours before ovalbumine injection (1 mg/kg), are reported respectively in tables 1 and 2.
as §1

[6] = system: ovalbumine-induced bronchospasm; assay: ovalbumine-induced bronchospasm in actively sensitized guinea pigs; assay type: in vivo; conditions: Table III, 0.1 mg/kg PO
From the text: as §1

[7] = system: histamine induced bronchospasm; assay: histamine-induced bronchospasm in artificially ventilated anaesthetized guinea pigs; assay type: in vivo; conditions: for % of bronchoconstriction / % of effect: Table V, 0.1 mg/kg PO
Protocol: as §1
The kinetic results of the administration of compound XI and ketotifen by oral route at 0.1 mg/kg (P.O.), 1 to 27 h histamine injection (15 mg IV), are reported in table 5.

[8] = Table I, 0.1 mg/kg PO, pretreatment 1 h
[9] = Table I, 0.1 mg/kg PO, pretreatment 3 h
[10] = Table I, 0.1 mg/kg PO, pretreatment 6 h
[11] = Table I, 0.1 mg/kg PO, pretreatment 9 h
[12] = Table I, 0.1 mg/kg PO, pretreatment 15 h
[13] = Table I, 0.1 mg/kg PO, pretreatment 18 h
[14] = Table I, 0.1 mg/kg PO, pretreatment 21 h
[15] = Table I, 0.1 mg/kg PO, pretreatment 24 h
[16] = Table II, 0.05 mg/kg PO, pretreatment 1 h
[17] = Table II, 0.05 mg/kg PO, pretreatment 3 h
[18] = Table II, 0.05 mg/kg PO, pretreatment 6 h
[19] = Table II, 0.05 mg/kg PO, pretreatment 9 h
[20] = Table II, 0.05 mg/kg PO, pretreatment 15 h
[21] = Table II, 0.05 mg/kg PO, pretreatment 18 h
[22] = Table II, 0.05 mg/kg PO, pretreatment 21 h

## CN1CCC(=C2c3ccccc3CC(=O)c3[se]ccc32)CC1 [Compound XI, 4-(1-methyl 4-piperidyliden) 9,10-dihydro 4H-benzo [4,5] cyclohepta [1,2-b] selenophen 10-one]
[1]
  ED50: 0.0169 µmol/kg
[2]; 0.1 mg/kg PO
  Percentage of bronchoconstriction: 18.1 ± 6.3%
  Percentage of effect: -49.4%
[2]; 1 mg/kg PO
  Percentage of bronchoconstriction: 11.2 ± 2.7%
  Percentage of effect: -68.7%
[2]; passively sensitized rats
  inhibition of bronchoconstriction (in words): inhibits the bronchoconstriction in a dose-dependant manner
Rat washed platelets
  IC50: 2000 nM
PAF induced bronchospasm; 1 hour before PAF, 0.1 mg/kg
  inhibition of PAF induced bronchospasm (in words): significantly inhibits the bronchospasm
PAF induced bronchospasm; 0.1 mg/kg PO
  Percentage of bronchoconstriction: 29.4 ± 7.9%
  Percentage of effect: -62.5%
PAF induced bronchospasm; 1 mg/kg PO
  Percentage of bronchoconstriction: 23.0 ± 9.7%
  Percentage of effect: -70.6%
[3]
  anti-allergic activity compared with compound X: higher activity than compound X
[3]; oral drug
  histamine and ovalbumine antagonist activity: powerful histamine and ovalbumine antagonist
[4]; 0.275 mg/kg P.O.
  protective effect (in words): shows a protective effect
[4]; 0.275 mg/kg PO
  Mortality at 24 hours, % of mortality: 20%
  Mortality at 24 hours, % of variation: -67.5%
  Mortality at 24 hours, number of killed: 2/10
[4]; 0.550 mg/kg PO
  Mortality at 24 hours, % of mortality: 10%
  Mortality at 24 hours, % of variation: -83.7%
  Mortality at 24 hours, number of killed: 1/10
[5]; 0.1 mg/kg and 0.05 mg/kg P.O.
  time at which the activity disappears: 24 h
[5]; Cavia porcellus, po, 1 h, read-out: ED50 (P.O.)
  ED50: 0.0572 µmol/kg
[5]; [8]
  % of bronchoconstriction: 6.9 ± 1.0%
  % of effect: -91.5 ± 1.3%
[5]; [9]
  % of bronchoconstriction: 3.9 ± 1.1%
  % of effect: -93.7 ± 1.7%
[5]; [10]
  % of bronchoconstriction: 15.0 ± 11.5%
  % of effect: -75.9 ± 18.4%
[5]; [11]
  % of bronchoconstriction: 35.7 ± 18.8%
  % of effect: -60.1 ± 21.1%
[5]; [12]
  % of bronchoconstriction: 38.9 ± 13.7%
  % of effect: -50.7 ± 17.3%
[5]; [13]
  % of bronchoconstriction: 36.8 ± 17.5%
  % of effect: -62.0 ± 18.1%
[5]; [14]
  % of bronchoconstriction: 73.3 ± 14.2%
  % of effect: -24.3 ± 14.7%
[5]; [15]
  % of bronchoconstriction: 45.4 ± 15.2%
  % of effect: -27.1 ± 24.4%
[5]; [16]
  % of bronchoconstriction: 13.2 ± 5.4%
  % of effect: -85.1%
[5]; [17]
  % of bronchoconstriction: 17.7 ± 7.0%
  % of effect: -80.5%
[5]; [18]
  % of bronchoconstriction: 38.3 ± 16.5%
  % of effect: -60.4%
[5]; [19]
  % of bronchoconstriction: 49.2 ± 16.7%
  % of effect: -49.2%
[5]; [20]
  % of bronchoconstriction: 61.6 ± 18.7%
  % of effect: -6.5%
[5]; [21]
  % of bronchoconstriction: 50.7 ± 20.4%
  % of effect: -48.3%
[5]; [22]
  % of bronchoconstriction: 94.6 ± 4.4%
  % of effect: -3.5%
[5]; administered 1 hour before ovalbumine, P.O., dose-dependent
  inhibition of bronchoconstriction: > 90%
[6]; pretreatment 1 h
  % of bronchoconstriction: 3.5 ± 1.1%
  % of effect: -96.1 ± 1.3%
[6]; pretreatment 3 h
  % of bronchoconstriction: 5.0 ± 1.6%
  % of effect: -93.4 ± 2.1%
[6]; pretreatment 6 h
  % of bronchoconstriction: 2.1 ± 0.6%
  % of effect: -97.3 ± 0.8%
[6]; pretreatment 9 h
  % of bronchoconstriction: 35.5 ± 15.9%
  % of effect: -61.1 ± 22.2%
[6]; pretreatment 15 h
  % of bronchoconstriction: 42.2 ± 16.6%
  % of effect: -50.6 ± 19.5%
[6]; pretreatment 18 h
  % of bronchoconstriction: 67.1 ± 19.0%
  % of effect: +22.7 ± 34.8%
[6]; pretreatment 21 h
  % of bronchoconstriction: 50.1 ± 21.6%
  % of effect: -8.3 ± 39.5%
[7]; 1 h
  % of bronchoconstriction: 2.0 ± 0.8%
  % of effect: -97.5 ± 1.0%
[7]; 3 h
  % of bronchoconstriction: 1.0 ± 1.0%
  % of effect: -98.8 ± 1.2%
[7]; 6 h
  % of bronchoconstriction: 5.4 ± 3.2%
  % of effect: -93.5 ± 3.8%
[7]; 9 h
  % of bronchoconstriction: 4.9 ± 1.7%
  % of effect: -93.6 ± 2.3%
[7]; 15 h
  % of bronchoconstriction: 36.6 ± 8.4%
  % of effect: -48.2 ± 11.8%
[7]; 18 h
  % of bronchoconstriction: 34.9 ± 18.1%
  % of effect: 61.7 ± 19.9%
[7]; 21 h
  % of bronchoconstriction: 52.9 ± 9.7%
  % of effect: 37.6 ± 11.5%
[7]; 24 h
  % of bronchoconstriction: 37.9 ± 9.9%
  % of effect: -42.3 ± 15.0%
[7]; 27 h
  % of bronchoconstriction: 76.8 ± 10.2%
  % of effect: +6.3 ± 14.1%
[7]; administered 1 hour before histamine (15 mg IV)
  inhibition of bronchoconstriction (in words): inhibit significantly the bronchoconstriction in a dose-dependant-manner
[7]; during the first hours, 0.1 mg/kg P.O.
  duration of total inhibition of the bronchospasm: 9 h
